Data taken from patent US11066419B2, “1H-pyrrole-2,5-dione compounds and methods of using same” (Frequency Therapeutics, Inc., priority 2016, dated 2021).

Key:
recombinant human GSK3α = recombinant human GSK3α (Homo sapiens, UniProt P49840); assay: In vitro enzymatic assay for inhibition of GSK3α (Kinase-Glo Max luminescence); format: biochemical; conditions: 10 uM ATP, 0.1 mg/ml GSKtide, 30° C. 40 minutes, read-out: Potency Alpha
Experimental: (§1) Enzymatic activities using recombinant human GSK3 using an in vitro enzymatic assay for inhibition GSK3α and GSK3β.
(§2) The assay was performed using Kinase-Glo Max luminescence kinase assay kit (Promega). It measures kinase activity by quantitating the amount of ATP remaining in solution following a kinase reaction. The luminescent signal from the assay is correlated with the amount of ATP present and is inversely correlated with the amount of kinase activity. The compounds were diluted in 10% DMSO and 5 μl of the dilution was added to a 50 μl reaction so that the final concentration of DMSO is 1% in all of reactions. The enzymatic reactions were conducted at 30° C. for 40 minutes. The 50 μl reaction mixture contains 40 mM Tris, pH 7.4, 10 mM MgCl2, 0.1 mg/ml BSA, 2 mM DTT, 0.1 mg/ml GSKtide substrate, 10 uM ATP and GSK3. After the enzymatic reaction, 50 μl of Kinase-Glo Max Luminescence kinase assay solution (Promega) was added to each reaction and incubate the plate for 15 minutes at room temperature. Luminescence signal was measured using a BioTek Synergy 2 microplate reader.
(§3) Kinase activity assays were performed in duplicate at each concentration. The luminescence data were analyzed using the computer software, Graphpad Prism. The difference between luminescence intensities in the absence of Kinase (Lut) and in the presence of Kinase (Luc) was defined as 100% activity (Lut−Luc). Using luminescence signal (Lu) in the presence of the compound, % activity was calculated as: % activity={(Lut−Lu)/(Lut−Luc)}×100%, where Lu=the luminescence intensity in the presence of the compound (all percent activities below zero were shown zero in the table).
(§4) The values of % activity versus a series of compound concentrations were then plotted using non-linear regression analysis of Sigmoidal dose-response curve generated with the equation Y=B+(T−B)/1+10((Log EC50−X)×Hill Slope), where Y=percent activity, B=minimum percent activity, T=maximum percent activity, X=logarithm of compound and Hill Slope=slope factor or Hill coefficient. The IC50 value was determined by the concentration causing a half-maximal percent activity.

recombinant human GSK3β = recombinant human GSK3β (Homo sapiens, UniProt P49841); assay: In vitro enzymatic assay for inhibition of GSK3β (Kinase-Glo Max luminescence); format: biochemical; conditions: 10 uM ATP, 0.1 mg/ml GSKtide, 30° C. 40 minutes, read-out: Potency Beta
Experimental: as §1, §2, §3, §4

Lgr5-positive cells = assay: Expansion of Lgr5-positive cells (cochlear stem cell expansion, 3D Matrigel culture, flow cytometry for Lgr5-GFP); format: cell-based, mouse; conditions: for EC50: Mus musculus, 240 h, Lgr5-positive cell expansion, cochlear cells of neonatal Lgr5-EGFP-IRES-Cre-ER mice, 10 days in culture, read-out: Potency; for % of Cells: percentage of Lgr5-GFP-positive cells after 10 days (D10) in culture, flow cytometer
Experimental: Lgr5-EGFP-IRES-Cre-ER mice (Barker et al., 2007) (http://jaxmice.jax.org/strain/008875.html) are used to analyze the effects of small molecules on cochlear stem cell expansion.
Isolation of stem cells from the inner ear: All animal studies are conducted under an approved institutional protocol according to National Institutes of Health guidelines. For experiments with neonatal mice (postnatal days 1-3), the cochleae are dissected in HBSS and the organ of Corti are separated from the stria vascularis and the modiolus. The organs of Corti are then treated with Cell Recovery Solution (Corning) for 1 h to separate cochlear epithelium from the underlying mesenchyme. Epithelia are then collected and treated with TrypLE (Life Technologies) for 15-20 minutes at 37° C. Single cells obtained by mechanical trituration are filtered (40 μm) and suspended in Matrigel (Corning) for 3D culture.
Cells are cultured in a 1:1 mixture of DMEM and F12, supplemented with Glutamax (GIBCO), N2, B27 (Invitrogen), EGF (50 ng/ml; Chemicon), bFGF (50 ng/ml; Chemicon), IGF1 (50 ng/ml; Chemicon) and the composition provided herein. Media are changed every other day.
Lgr5-positive cells are quantified after 10 days (D10) in culture in multiple conditions. Cell colonies are dissociated into single cells using TrypLE (Gibco). The cells are then stained with propidium iodide (PI) and are analyzed using a flow cytometer for Lgr5-GFP expression. The number of GFP-positive cells and the percentage of GFP-positive cells are quantified.

Chain of recombinant human GSK3α (P49840 whole entry): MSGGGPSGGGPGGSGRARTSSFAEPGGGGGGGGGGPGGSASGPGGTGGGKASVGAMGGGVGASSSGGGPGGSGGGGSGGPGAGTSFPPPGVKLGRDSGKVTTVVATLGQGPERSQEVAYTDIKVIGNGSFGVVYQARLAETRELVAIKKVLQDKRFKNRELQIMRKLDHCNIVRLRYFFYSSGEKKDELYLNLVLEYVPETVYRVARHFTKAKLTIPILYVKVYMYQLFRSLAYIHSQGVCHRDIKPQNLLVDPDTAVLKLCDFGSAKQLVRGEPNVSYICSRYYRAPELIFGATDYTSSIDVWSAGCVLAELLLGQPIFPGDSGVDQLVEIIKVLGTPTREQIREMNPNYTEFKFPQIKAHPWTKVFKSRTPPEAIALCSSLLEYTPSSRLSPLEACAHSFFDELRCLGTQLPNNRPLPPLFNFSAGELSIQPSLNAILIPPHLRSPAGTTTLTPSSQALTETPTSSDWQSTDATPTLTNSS
Chain of recombinant human GSK3β (P49841 whole entry): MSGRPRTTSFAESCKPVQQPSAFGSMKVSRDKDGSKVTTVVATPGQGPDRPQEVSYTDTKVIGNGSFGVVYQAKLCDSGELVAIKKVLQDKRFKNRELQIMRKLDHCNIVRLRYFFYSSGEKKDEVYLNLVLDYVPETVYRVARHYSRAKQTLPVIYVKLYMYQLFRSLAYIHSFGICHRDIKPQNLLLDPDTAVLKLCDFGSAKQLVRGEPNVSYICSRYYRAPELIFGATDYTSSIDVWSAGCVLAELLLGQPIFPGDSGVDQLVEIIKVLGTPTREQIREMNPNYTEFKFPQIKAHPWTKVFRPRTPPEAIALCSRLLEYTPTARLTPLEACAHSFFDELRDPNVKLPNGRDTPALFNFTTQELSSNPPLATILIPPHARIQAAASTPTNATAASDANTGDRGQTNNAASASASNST

Structure (SMILES)	IC50 (recombinant human GSK3α) [µM]	IC50 (recombinant human GSK3β) [µM]	EC50 (Lgr5-positive cells) [µM]	% of Cells (Lgr5-positive cells)
O=C1NC(=O)C(c2cnc3ccccn23)=C1c1cn2c3c(cc(F)cc13)CN(C(=O)N1C[C@H]3C[C@@H]1CN3)CC2 [Compound I-13]	0.001 to 0.01	0.001 to 0.01	> 1	+++ (“+++” indicates greater than about 11%)
N#Cc1cc2c3c(c1)c(C1=C(c4cnc5ccccn45)C(=O)NC1=O)cn3CCN(C(=O)N1CC3CCC(C1)O3)C2 [Compound I-14]	0.001 to 0.01	0.001 to 0.01	> 1	+ (“+” indicates about 0-5%)
O=C1NC(=O)C(c2cnc3ccccn23)=C1c1cn2c3c(cc(C(F)(F)F)cc13)CN(C(=O)N1CCC(F)(F)CC1)CC2 [Compound I-17]	0.001 to 0.01	0.001 to 0.01	> 1	+ (“+” indicates about 0-5%)
O=C1NC(=O)C(c2cnc3ccccn23)=C1c1cn2c3c(cc(C(F)(F)F)cc13)CN(C(=O)N1CCC(CO)CC1)CC2 [Compound I-20]	0.001 to 0.01	0.001 to 0.01	> 1	+++ (“+++” indicates greater than about 11%)
N#Cc1cc2c3c(c1)c(C1=C(c4cnc5ccccn45)C(=O)NC1=O)cn3CCN(C(=O)N1CCC(CO)CC1)C2 [Compound I-21]	0.001 to 0.01	0.001 to 0.01	> 1	+++ (“+++” indicates greater than about 11%)
O=C1NC(=O)C(c2cnc3ccccn23)=C1c1cn2c3c(cc(F)cc13)CN(C(=O)N1CC(F)(F)C(F)(F)C(F)(F)C1)CC2 [Compound I-22]	0.001 to 0.01	0.001 to 0.01	0.001 to 0.1	++ (“++” indicates about 6-10%)
O=C1NC(=O)C(c2cnc3ccccn23)=C1c1cn2c3c(cc(F)cc13)CN(C(=O)N1CC(F)(F)OC(F)(F)C1)CC2 [Compound I-24]	0.001 to 0.01	0.001 to 0.01	0.001 to 0.1	++ (“++” indicates about 6-10%)
O=C1NC(=O)C(c2cnc3ccccn23)=C1c1cn2c3c(cc(F)cc13)CN(C(=O)N1CCOCC(F)(F)C1)CC2 [Compound I-27]	0.001 to 0.01	0.001 to 0.01	0.001 to 0.1	+++ (“+++” indicates greater than about 11%)
O=C1NC(=O)C(c2cnc3ccccn23)=C1c1cn2c3c(cc(F)cc13)CN(C(=O)N1CCC(C(O)C(F)(F)F)CC1)CC2 (stereo not drawn) [Compound I-31]	0.001 to 0.01	0.001 to 0.01	0.001 to 0.1	+++ (“+++” indicates greater than about 11%)
CN(C)CC1CCN(C(=O)N2CCn3cc(C4=C(c5cnc6ccccn56)C(=O)NC4=O)c4cc(F)cc(c43)C2)CC1 [Compound I-33]	0.001 to 0.01	0.001 to 0.01	0.1 to 1	+++ (“+++” indicates greater than about 11%)
O=C1NC(=O)C(c2cnc3ccccn23)=C1c1cn2c3c(cc(F)cc13)CN(C(=O)NCC1CCNCC1)CC2 [Compound I-37]	0.001 to 0.01	0.001 to 0.01	> 1	+ (“+” indicates about 0-5%)
CN(CC1CCNCC1)C(=O)N1CCn2cc(C3=C(c4cnc5ccccn45)C(=O)NC3=O)c3cc(F)cc(c32)C1 [Compound I-38]	0.001 to 0.01	0.001 to 0.01	> 1	+ (“+” indicates about 0-5%)
CN1CC2CC1CN2C(=O)N1CCn2cc(C3=C(c4cnc5ccccn45)C(=O)NC3=O)c3cc(F)cc(c32)C1 (stereo not drawn) [Compound I-40]	0.001 to 0.01	0.001 to 0.01	> 1	+ (“+” indicates about 0-5%)
CN1CCC2(CCN(C(=O)N3CCn4cc(C5=C(c6cnc7ccccn67)C(=O)NC5=O)c5cc(F)cc(c54)C3)CC2)C1 [Compound I-41]	0.001 to 0.01	0.001 to 0.01	> 1	+++ (“+++” indicates greater than about 11%)
O=C1NC(=O)C(c2cnc3ccccn23)=C1c1cn2c3c(cc(C(F)(F)F)cc13)CN(C(=O)N1CC(F)(F)OC(F)(F)C1)CC2 [Compound I-43]	0.001 to 0.01	0.001 to 0.01	0.1 to 1	+++ (“+++” indicates greater than about 11%)
O=C1NC(=O)C(c2cnc3ccccn23)=C1c1cn2c3c(cc(C(F)(F)F)cc13)CN(C(=O)N1CCOCC(F)(F)C1)CC2 [Compound I-44]	0.001 to 0.01	0.001 to 0.01	0.1 to 1	+++ (“+++” indicates greater than about 11%)

Continued, in another order:

IC50 (recombinant human GSK3α) [µM]	IC50 (recombinant human GSK3β) [µM]	EC50 (Lgr5-positive cells) [µM]	Structure (SMILES)	% of Cells (Lgr5-positive cells)
0.001 to 0.01	0.001 to 0.01	0.001 to 0.1	O=C1NC(=O)C(c2cnc3ccccn23)=C1c1cn2c3c(cc(F)cc13)CN(C(=O)N1CCCC(F)(F)C1)CC2 [Compound I-12]	+++ (“+++” indicates greater than about 11%)
0.001 to 0.01	0.001 to 0.01	> 1	N#Cc1cc2c3c(c1)c(C1=C(c4cnc5ccccn45)C(=O)NC1=O)cn3CCN(C(=O)N1CCCC(F)(F)C1)C2 [Compound I-15]	++ (“++” indicates about 6-10%)
0.001 to 0.01	0.001 to 0.01	0.1 to 1	N#Cc1cc2c3c(c1)c(C1=C(c4cnc5ccccn45)C(=O)NC1=O)cn3CCN(C(=O)N1CCC(F)(F)CC1)C2 [Compound I-16]	+++ (“+++” indicates greater than about 11%)
0.001 to 0.01	0.001 to 0.01	> 1	NCC1CCN(C(=O)N2CCn3cc(C4=C(c5cnc6ccccn56)C(=O)NC4=O)c4cc(F)cc(c43)C2)CC1 [Compound I-19]	+++ (“+++” indicates greater than about 11%)
0.001 to 0.01	0.001 to 0.01	> 1	CNCC1CCN(C(=O)N2CCn3cc(C4=C(c5cnc6ccccn56)C(=O)NC4=O)c4cc(F)cc(c43)C2)CC1 [Compound I-32]	+++ (“+++” indicates greater than about 11%)
0.001 to 0.01	0.001 to 0.01	> 1	NC1CCN(C(=O)N2CCn3cc(C4=C(c5cnc6ccccn56)C(=O)NC4=O)c4cc(F)cc(c43)C2)CC1 [Compound I-34]	++ (“++” indicates about 6-10%)
0.001 to 0.01	0.001 to 0.01	> 1	CNC1CCN(C(=O)N2CCn3cc(C4=C(c5cnc6ccccn56)C(=O)NC4=O)c4cc(F)cc(c43)C2)CC1 [Compound I-35]	+ (“+” indicates about 0-5%)
0.001 to 0.01	0.001 to 0.01	0.001 to 0.1	O=C1NC(=O)C(c2cnc3ccccn23)=C1c1cn2c3c(cc(F)c(F)c13)CN(C(=O)N1CCCCC1)CC2 [Compound I-48]	++ (“++” indicates about 6-10%)
